These are literature values, as cited in US8338613B2, “Process for the preparation of bidentate schiff base ruthenium catalysts containing a salicylaldimine-type ligand” (RIMTEC Corporation, priority 2009, dated 2012).

The conditions of the data set: in water (for Ag2CO3).
Consider `O=C([O-])[O-].[Na+].[Na+]` [Na2CO3], for which the pKb entry is “about 3.69”.

Consider `O=C([O-])[O-].[Cu+2]` [CuCO3], for which the pKb result is recorded as “about 3.69”.

With `O=C([O-])[O-].[Li+].[Li+]` [Li2CO3], the pKb entry is “about 3.69”. Turning to `O=C([O-])[O-].[K+].[K+]` [K2CO3], the pKb entry was “about 3.69”.
